Data as given in ChEMBL document CHEMBL4483862, “Open-source discovery of chemical leads for next-generation chemoprotective antimalarials” (2018).

Test system: Plasmodium berghei
Assay: Luciferase/luciferin-expressing antifolate-resistant parasites were used to infect a culture of HepG2 cells that were pre-incubated with compounds. Infected hepatocytes emit light due to the luciferase reaction. Assay results are presented as the percent inhibition of light emission compared to control. […]
Assay type: functional
Settings: sporozoite; for IC90: read-out: LUCIFERASE INFECTION ASSAY - IC90
[1] = read-out: LUCIFERASE INFECTION ASSAY - IC50

Row | Structure (SMILES) | IC90 [µM] | IC50 [1] [µM] | other results
1 | CC(C)C(=O)Nc1ccc(-c2nc3ccccc3[nH]2)cc1 | > 11.8 |  | IC50 (FFLUC_HILL_SLOPE 2.58, FFLUC_R_SQUARED 0.591, PBLUC_HILL_SLOPE 1.21, PBLUC_R_SQUARED 0.595, read-out: LUCIFERASE INFECTION ASSAY - IC50): 4.49 µM
2 | COc1ccc(-c2cnc3cnc(-c4cccc(C(N)=O)c4)cn23)cn1 | 3.91 |  | IC50 (PBLUC_HILL_SLOPE 17.6, PBLUC_R_SQUARED 0.459, read-out: LUCIFERASE INFECTION ASSAY - IC50): 3.45 µM
3 | COc1ccc(-c2ccc(C=C(C#N)C#N)s2)cc1 | 0.914 | 0.403 | 
4 | CN1/C(=C\C(=O)C[n+]2cccc(Br)c2)C(C)(C)c2ccccc21 | > 10 |  | IC50 (HEPG2TOX_HILL_SLOPE 3.72, HEPG2TOX_R_SQUARED 0.897, PBLUC_HILL_SLOPE 2.59, PBLUC_R_SQUARED 0.674, read-out: LUCIFERASE INFECTION ASSAY - IC50): 4.52 µM
5 | CC(C)[C@H](NS(=O)(=O)c1ccc2c(c1)OCCO2)C(=O)Nc1nc(-c2ccc(F)c(F)c2)cs1 | > 10 |  | IC50 (FFLUC_HILL_SLOPE 26.7, FFLUC_R_SQUARED 0.287, HEPG2TOX_HILL_SLOPE 3.72, HEPG2TOX_R_SQUARED 0.958, PBLUC_HILL_SLOPE 3.86, PBLUC_R_SQUARED 0.4, read-out: LUCIFERASE INFECTION ASSAY - IC50): 6.43 µM
6 | Cc1cc(NC(=O)/C=C/c2cn(-c3ccccc3)nc2-c2cccnc2)ccc1N1CCN(C)CC1 | 4.23 |  | IC50 (PBLUC_HILL_SLOPE 11.7, PBLUC_R_SQUARED 0.29, read-out: LUCIFERASE INFECTION ASSAY - IC50): 3.5 µM
7 | CCO/C(C)=N\OC(=O)c1c(-c2c(Cl)cccc2Cl)noc1C | > 9.24 | > 9.24 | 
8 | COc1ccc(N(Cc2nc(-c3cccs3)oc2C)S(=O)(=O)c2cccs2)cc1 | 0.446 |  | IC50 (HEPG2TOX_HILL_SLOPE 2.9, HEPG2TOX_R_SQUARED 0.761, PBLUC_HILL_SLOPE 1.87, PBLUC_R_SQUARED 0.806, read-out: LUCIFERASE INFECTION ASSAY - IC50): 0.137 µM
9 | COc1ccc(C2CCCN2Cc2ccc(C(N)=O)cc2)c(OC)c1 (configuration not stated) | > 10 | > 10 | 
10 | CCc1cccc2c(C3=NNC(=Nc4cccc(S(=O)(=O)N(C)C)c4)SC3)c[nH]c12 | 3.4 |  | IC50 (HEPG2TOX_HILL_SLOPE 2.11, HEPG2TOX_R_SQUARED 0.991, PBLUC_HILL_SLOPE 17, PBLUC_R_SQUARED 0.266, read-out: LUCIFERASE INFECTION ASSAY - IC50): 2.99 µM
11 | COc1ccc(-c2cnc3cnc(-c4cccc(N)c4)cn23)cc1 | 1.68 |  | IC50 (FFLUC_HILL_SLOPE 0.419, FFLUC_R_SQUARED 0.0515, PBLUC_HILL_SLOPE 8.9, PBLUC_R_SQUARED 0.87, read-out: LUCIFERASE INFECTION ASSAY - IC50): 1.31 µM
12 | CCN(CC)Cc1ccccc1CNC(=O)c1cccc2ccccc12 | > 10 | > 10 | 
13 | Cc1ccc(N/C=C(\C#N)S(=O)(=O)c2ccc(Cl)cc2)cc1 | > 9.92 | > 9.92 | 
14 | c1ccc(-c2cc3c(Oc4cccc5ccccc45)ncnc3s2)cc1 | > 10 |  | IC50 (FFLUC_HILL_SLOPE 2.93, FFLUC_R_SQUARED 0.065, PBLUC_HILL_SLOPE 1.19, PBLUC_R_SQUARED 0.417, read-out: LUCIFERASE INFECTION ASSAY - IC50): 2.85 µM
15 | CC(c1cccc(NC(=O)c2ccccc2)c1)N(C)c1ccc([N+](=O)[O-])cn1 (configuration not stated) | 1.3 |  | IC50 (HEPG2TOX_HILL_SLOPE 3.15, HEPG2TOX_R_SQUARED 0.897, PBLUC_HILL_SLOPE 11.5, PBLUC_R_SQUARED 0.814, read-out: LUCIFERASE INFECTION ASSAY - IC50): 1.08 µM
16 | CCCNC(=O)c1nnsc1S(=O)(=O)c1ccc(Cl)cc1 | > 9.54 |  | IC50 (HEPG2TOX_HILL_SLOPE 12.7, HEPG2TOX_R_SQUARED 0.778, PBLUC_HILL_SLOPE 22.3, PBLUC_R_SQUARED 0.0764, read-out: LUCIFERASE INFECTION ASSAY - IC50): 9.02 µM
17 | Clc1ccc2c(NCc3ccc(N4CCOCC4)nc3)ncnc2c1 | > 10 | > 10 | 
18 | O=C(Nc1cnc2ccccc2c1)c1cccc(NC(=O)c2cccs2)c1 | > 10 |  | IC50 (PBLUC_HILL_SLOPE 0.461, PBLUC_R_SQUARED 0.664, read-out: LUCIFERASE INFECTION ASSAY - IC50): 0.217 µM
19 | CC(=O)c1c(C)[nH]c(C(=O)C(C)Sc2nc3ccccc3o2)c1C (configuration not stated) | > 10 |  | IC50 (HEPG2TOX_HILL_SLOPE 2.15, HEPG2TOX_R_SQUARED 0.56, PBLUC_HILL_SLOPE 10.4, PBLUC_R_SQUARED 0.465, read-out: LUCIFERASE INFECTION ASSAY - IC50): 8.44 µM
20 | CN(C)S(=O)(=O)c1ccc(OCCOC(=O)c2c3c(nn2-c2ccccc2)CCCC3)cc1 | > 10 |  | IC50 (FFLUC_HILL_SLOPE 11.3, FFLUC_R_SQUARED 0.368, read-out: LUCIFERASE INFECTION ASSAY - IC50): > 10 µM
21 | Cc1cc(NC(c2cccc(Br)c2)c2ccc3cccnc3c2O)no1 (configuration not stated) | 5.63 |  | IC50 (FFLUC_HILL_SLOPE 0.447, FFLUC_R_SQUARED 0.211, HEPG2TOX_HILL_SLOPE 1.34, HEPG2TOX_R_SQUARED 0.983, PBLUC_HILL_SLOPE 2.79, PBLUC_R_SQUARED 0.445, read-out: LUCIFERASE INFECTION ASSAY - IC50): 2.56 µM

Row | Structure (SMILES) | IC90 [µM] | IC50 [1] [µM] | other results
22 | CCNC(=O)COc1ccc(/C=C2\COc3ccccc3C2=O)cc1OC | > 10 | > 10 | 
23 | CC(C)(C)NC(=S)N/N=C/c1cc(Cl)cc(Cl)c1O | 6.66 |  | IC50 (HEPG2TOX_HILL_SLOPE 1.14, HEPG2TOX_R_SQUARED 0.984, PBLUC_HILL_SLOPE 2.14, PBLUC_R_SQUARED 0.291, read-out: LUCIFERASE INFECTION ASSAY - IC50): 2.39 µM
24 | Cn1c(N)c(C(=O)COC(=O)c2oc3ccccc3c2CSC2CCCCC2)c(=O)n(C)c1=O | > 10 | > 10 | 
25 | C/C(=N\NC(N)=S)c1csc(-c2ccccc2)n1 | 11.9 |  | IC50 (HEPG2TOX_HILL_SLOPE 1.53, HEPG2TOX_R_SQUARED 0.983, PBLUC_HILL_SLOPE 21.6, PBLUC_R_SQUARED 0.0721, read-out: LUCIFERASE INFECTION ASSAY - IC50): 10.7 µM
26 | COc1ccc(F)cc1-c1csc(-c2ccc(NC(=O)c3cccs3)cc2)n1 | > 10 | > 10 | 
27 | CC(C)(C)C(=O)/C=c1\[nH]c(=O)/c(=C\c2ccc(Oc3ccc(F)cc3)c([N+](=O)[O-])c2)s1 | > 10 | > 10 | 
28 | CCCc1c(C)[nH]c2[nH]n(-c3nc(C)cc(C)n3)c(=O)c2c1=O | > 10.5 |  | IC50 (PBLUC_HILL_SLOPE 2.87, PBLUC_R_SQUARED 0.443, read-out: LUCIFERASE INFECTION ASSAY - IC50): > 10.5 µM
29 | COc1cc(/C=N/NC(=O)c2ccccc2NS(=O)(=O)c2cccs2)ccc1OCCC(C)C | 1.06 |  | IC50 (PBLUC_HILL_SLOPE 1.78, PBLUC_R_SQUARED 0.852, read-out: LUCIFERASE INFECTION ASSAY - IC50): 0.307 µM
30 | O=C(CCc1c(-c2ccc(F)cc2)[nH]c2ccc(F)cc12)N1CCN(c2ccccn2)CC1 | 3.87 | 3.16 | 
31 | Cc1coc(C)c1C(=O)/C=C/c1ccc2cccnc2c1 | 2.69 | 2.51 | 
32 | COc1ccc(/C=C/C#N)c(Cl)c1OC | > 14.8 |  | IC50 (HEPG2TOX_HILL_SLOPE 1.17, HEPG2TOX_R_SQUARED 0.985, PBLUC_HILL_SLOPE 2.95, PBLUC_R_SQUARED 0.12, read-out: LUCIFERASE INFECTION ASSAY - IC50): 11.3 µM
33 | Clc1ccc2c(c1)-c1nc(-c3ccncc3)ncc1CS2 | 5.94 |  | IC50 (HEPG2TOX_HILL_SLOPE 2.28, HEPG2TOX_R_SQUARED 0.969, PBLUC_HILL_SLOPE 3.97, PBLUC_R_SQUARED 0.207, read-out: LUCIFERASE INFECTION ASSAY - IC50): 3.41 µM
34 | COc1ccc(-c2c(C)nn3c(NCc4ccccn4)cc(C)nc23)cc1OC | 7.49 |  | IC50 (HEPG2TOX_HILL_SLOPE 8.52, HEPG2TOX_R_SQUARED 0.776, PBLUC_HILL_SLOPE 1.28, PBLUC_R_SQUARED 0.799, read-out: LUCIFERASE INFECTION ASSAY - IC50): 1.34 µM
35 | Cc1cc(-n2c(-c3cccnc3Oc3ccccc3)n[nH]c2=S)ccc1Br | > 7.51 |  | IC50 (PBLUC_HILL_SLOPE 0.263, PBLUC_R_SQUARED 0.232, read-out: LUCIFERASE INFECTION ASSAY - IC50): > 7.51 µM
36 | O=C(Nc1cccc(S(=O)(=O)Nc2ccc(Cl)cc2)c1)c1[nH]nc2ccccc12 | > 10 | 8.98 | 
37 | O=S(=O)(Nc1cc(C(F)(F)F)cc(C(F)(F)F)c1)c1cc(F)c(Br)cc1F | 5.67 |  | IC50 (HEPG2TOX_HILL_SLOPE 2.12, HEPG2TOX_R_SQUARED 0.942, PBLUC_HILL_SLOPE 3.41, PBLUC_R_SQUARED 0.612, read-out: LUCIFERASE INFECTION ASSAY - IC50): 2.98 µM
38 | COc1ccc2c(CC(=O)N(c3cc(C)cc(C)c3)c3nc(-c4ccc(Br)cc4)cs3)coc2c1 | > 10 |  | IC50 (FFLUC_HILL_SLOPE 2.23, FFLUC_R_SQUARED 0.6, read-out: LUCIFERASE INFECTION ASSAY - IC50): > 10 µM
39 | COC(=O)c1scc(C)c1N1C(=O)C=CC1=O | > 13.1 |  | IC50 (PBLUC_HILL_SLOPE 9.1, PBLUC_R_SQUARED 0.327, read-out: LUCIFERASE INFECTION ASSAY - IC50): > 13.1 µM
40 | O=c1c2ccccc2nc2c3ccccc3c(NCCCN3CCOCC3)nn12 | > 10 | 9.05 | 
41 | Cc1cc(C(=O)Cn2c(CO)nc3ccccc32)c(C)n1-c1ccccc1 | > 10 |  | IC50 (HEPG2TOX_HILL_SLOPE 1.51, HEPG2TOX_R_SQUARED 0.587, PBLUC_HILL_SLOPE 1.38, 1.35, PBLUC_R_SQUARED 0.541, 0.883, read-out: LUCIFERASE INFECTION ASSAY - IC50): 3.87 µM
